Laboratory results reported in the supplement of paper PMC10307832.

Columns and labels:
Assay in all cases: relative viability (nuclei count vs DMSO), 5 days (fraction); higher = more cells survive
17-AAG + Dasatinib = compound: C=CCNC1=C2C[C@@H](C)C[C@H](OC)[C@H](O)[C@@H](C)/C=C(\C)[C@H](OC(N)=O)[C@@H](OC)/C=C\C=C(/C)C(=O)NC(=CC1=O)C2=O [17-AAG] + Cc1nc(Nc2ncc(C(=O)Nc3c(C)cccc3Cl)s2)cc(N2CCN(CCO)CC2)n1 [Dasatinib] (partner 0.075 µM)
Procedure, shortened: (§1)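 Relative viability was taken as the ratio of nuclei in treated wells to nuclei in vehicle wells. Lung cancer cell lines in 1536-well plates received compounds by pin tool one day after seeding, either one drug alone or a fixed anchor-drug dose plus five library-drug doses (not always all listed) in √10 steps. Nuclei were counted on 4× images after 5 days of treatment, and values are medians of duplicate plates.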

17-AAG + Palbociclib = compound: C=CCNC1=C2C[C@@H](C)C[C@H](OC)[C@H](O)[C@@H](C)/C=C(\C)[C@H](OC(N)=O)[C@@H](OC)/C=C\C=C(/C)C(=O)NC(=CC1=O)C2=O [17-AAG] + CC(=O)c1c(C)c2cnc(Nc3ccc(N4CCNCC4)cn3)nc2n(C2CCCC2)c1=O [Palbociclib] (partner 0.5 µM)
Procedure, shortened: as §1

17-AAG + Vorinostat = compound: C=CCNC1=C2C[C@@H](C)C[C@H](OC)[C@H](O)[C@@H](C)/C=C(\C)[C@H](OC(N)=O)[C@@H](OC)/C=C\C=C(/C)C(=O)NC(=CC1=O)C2=O [17-AAG] + O=C(CCCCCCC(=O)Nc1ccccc1)NO [Vorinostat] (partner 1 µM)
Procedure, shortened: as §1

17-AAG + Pemetrexed = compound: C=CCNC1=C2C[C@@H](C)C[C@H](OC)[C@H](O)[C@@H](C)/C=C(\C)[C@H](OC(N)=O)[C@@H](OC)/C=C\C=C(/C)C(=O)NC(=CC1=O)C2=O [17-AAG] + Nc1nc2[nH]cc(CCc3ccc(C(=O)N[C@@H](CCC(=O)O)C(=O)O)cc3)c2c(=O)[nH]1 [Pemetrexed] (partner 0.2 µM)
Procedure, shortened: as §1

## NCI-H358
17-AAG + Dasatinib; first compound 0.00128 µM
  relative viability: 0.216
17-AAG + Dasatinib; first compound 0.004048 µM
  relative viability: 0.117
17-AAG + Dasatinib; first compound 0.0128 µM
  relative viability: 0.0644
17-AAG + Dasatinib; first compound 0.04048 µM
  relative viability: 0.0712
17-AAG + Dasatinib; first compound 0.128 µM
  relative viability: 0.0579
17-AAG + Palbociclib; first compound 0.00128 µM
  relative viability: 0.171
17-AAG + Palbociclib; first compound 0.004048 µM
  relative viability: 0.0944
17-AAG + Palbociclib; first compound 0.0128 µM
  relative viability: 0.0747
17-AAG + Palbociclib; first compound 0.04048 µM
  relative viability: 0.0677
17-AAG + Palbociclib; first compound 0.128 µM
  relative viability: 0.079
17-AAG + Vorinostat; first compound 0.00128 µM
  relative viability: 0.703
17-AAG + Vorinostat; first compound 0.004048 µM
  relative viability: 0.439
17-AAG + Vorinostat; first compound 0.0128 µM
  relative viability: 0.113
17-AAG + Vorinostat; first compound 0.04048 µM
  relative viability: 0.0837
17-AAG + Vorinostat; first compound 0.128 µM
  relative viability: 0.0628
17-AAG + Pemetrexed; first compound 0.00128 µM
  relative viability: 0.156
17-AAG + Pemetrexed; first compound 0.004048 µM
  relative viability: 0.19
17-AAG + Pemetrexed; first compound 0.0128 µM
  relative viability: 0.126
17-AAG + Pemetrexed; first compound 0.04048 µM
  relative viability: 0.0833
17-AAG + Pemetrexed; first compound 0.128 µM
  relative viability: 0.0832

## NCI-H441
17-AAG + Dasatinib; first compound 0.00128 µM
  relative viability: 0.587
17-AAG + Dasatinib; first compound 0.004048 µM
  relative viability: 0.45
17-AAG + Dasatinib; first compound 0.0128 µM
  relative viability: 0.129
17-AAG + Dasatinib; first compound 0.04048 µM
  relative viability: 0.122
17-AAG + Dasatinib; first compound 0.128 µM
  relative viability: 0.127
17-AAG + Palbociclib; first compound 0.00128 µM
  relative viability: 0.283
17-AAG + Palbociclib; first compound 0.004048 µM
  relative viability: 0.166
17-AAG + Palbociclib; first compound 0.0128 µM
  relative viability: 0.108
17-AAG + Palbociclib; first compound 0.04048 µM
  relative viability: 0.116
17-AAG + Palbociclib; first compound 0.128 µM
  relative viability: 0.107
17-AAG + Vorinostat; first compound 0.00128 µM
  relative viability: 0.968
17-AAG + Vorinostat; first compound 0.004048 µM
  relative viability: 0.996
17-AAG + Vorinostat; first compound 0.0128 µM
  relative viability: 0.617
17-AAG + Vorinostat; first compound 0.04048 µM
  relative viability: 0.128
17-AAG + Vorinostat; first compound 0.128 µM
  relative viability: 0.121
17-AAG + Pemetrexed; first compound 0.00128 µM
  relative viability: 0.255
17-AAG + Pemetrexed; first compound 0.004048 µM
  relative viability: 0.28
17-AAG + Pemetrexed; first compound 0.0128 µM
  relative viability: 0.284
17-AAG + Pemetrexed; first compound 0.04048 µM
  relative viability: 0.106
17-AAG + Pemetrexed; first compound 0.128 µM
  relative viability: 0.125

## NCI-H460
17-AAG + Dasatinib; first compound 0.00128 µM
  relative viability: 0.518
17-AAG + Dasatinib; first compound 0.004048 µM
  relative viability: 0.462
17-AAG + Dasatinib; first compound 0.0128 µM
  relative viability: 0.0434
17-AAG + Dasatinib; first compound 0.04048 µM
  relative viability: 0.0267
17-AAG + Dasatinib; first compound 0.128 µM
  relative viability: 0.019
17-AAG + Palbociclib; first compound 0.00128 µM
  relative viability: 0.31
17-AAG + Palbociclib; first compound 0.004048 µM
  relative viability: 0.117
17-AAG + Palbociclib; first compound 0.0128 µM
  relative viability: 0.016
17-AAG + Palbociclib; first compound 0.04048 µM
  relative viability: 0.0279
17-AAG + Palbociclib; first compound 0.128 µM
  relative viability: 0.0159
17-AAG + Vorinostat; first compound 0.00128 µM
  relative viability: 0.733
17-AAG + Vorinostat; first compound 0.004048 µM
  relative viability: 0.41
17-AAG + Vorinostat; first compound 0.0128 µM
  relative viability: 0.0303
17-AAG + Vorinostat; first compound 0.04048 µM
  relative viability: 0.0238
17-AAG + Vorinostat; first compound 0.128 µM
  relative viability: 0.0231
17-AAG + Pemetrexed; first compound 0.00128 µM
  relative viability: 0.0582
17-AAG + Pemetrexed; first compound 0.004048 µM
  relative viability: 0.0712
17-AAG + Pemetrexed; first compound 0.0128 µM
  relative viability: 0.0849
17-AAG + Pemetrexed; first compound 0.04048 µM
  relative viability: 0.0247
17-AAG + Pemetrexed; first compound 0.128 µM
  relative viability: 0.0362

## NCI-H520
17-AAG + Dasatinib; first compound 0.00128 µM
  relative viability: 0.241
17-AAG + Dasatinib; first compound 0.004048 µM
  relative viability: 0.236
17-AAG + Dasatinib; first compound 0.0128 µM
  relative viability: 0.21
17-AAG + Dasatinib; first compound 0.04048 µM
  relative viability: 0.169
17-AAG + Dasatinib; first compound 0.128 µM
  relative viability: 0.121
17-AAG + Palbociclib; first compound 0.00128 µM
  relative viability: 0.232
17-AAG + Palbociclib; first compound 0.004048 µM
  relative viability: 0.228
17-AAG + Palbociclib; first compound 0.0128 µM
  relative viability: 0.175
17-AAG + Palbociclib; first compound 0.04048 µM
  relative viability: 0.153
17-AAG + Palbociclib; first compound 0.128 µM
  relative viability: 0.133
17-AAG + Vorinostat; first compound 0.00128 µM
  relative viability: 0.75
17-AAG + Vorinostat; first compound 0.004048 µM
  relative viability: 0.662
17-AAG + Vorinostat; first compound 0.0128 µM
  relative viability: 0.433
17-AAG + Vorinostat; first compound 0.04048 µM
  relative viability: 0.174
17-AAG + Vorinostat; first compound 0.128 µM
  relative viability: 0.181
17-AAG + Pemetrexed; first compound 0.00128 µM
  relative viability: 0.604
17-AAG + Pemetrexed; first compound 0.004048 µM
  relative viability: 0.7
17-AAG + Pemetrexed; first compound 0.0128 µM
  relative viability: 0.261
17-AAG + Pemetrexed; first compound 0.04048 µM
  relative viability: 0.127
17-AAG + Pemetrexed; first compound 0.128 µM
  relative viability: 0.129

## NCI-H522
17-AAG + Dasatinib; first compound 0.00128 µM
  relative viability: 0.822
17-AAG + Dasatinib; first compound 0.004048 µM
  relative viability: 0.799
17-AAG + Dasatinib; first compound 0.0128 µM
  relative viability: 0.77
17-AAG + Dasatinib; first compound 0.04048 µM
  relative viability: 0.632
17-AAG + Dasatinib; first compound 0.128 µM
  relative viability: 0.443
17-AAG + Palbociclib; first compound 0.00128 µM
  relative viability: 1.02
17-AAG + Palbociclib; first compound 0.004048 µM
  relative viability: 1.15
17-AAG + Palbociclib; first compound 0.0128 µM
  relative viability: 0.896
17-AAG + Palbociclib; first compound 0.04048 µM
  relative viability: 0.647
17-AAG + Palbociclib; first compound 0.128 µM
  relative viability: 0.419
17-AAG + Vorinostat; first compound 0.00128 µM
  relative viability: 0.982
17-AAG + Vorinostat; first compound 0.004048 µM
  relative viability: 0.944
17-AAG + Vorinostat; first compound 0.0128 µM
  relative viability: 0.518
17-AAG + Vorinostat; first compound 0.04048 µM
  relative viability: 0.423
17-AAG + Vorinostat; first compound 0.128 µM
  relative viability: 0.382
17-AAG + Pemetrexed; first compound 0.00128 µM
  relative viability: 0.974
17-AAG + Pemetrexed; first compound 0.004048 µM
  relative viability: 1.01
17-AAG + Pemetrexed; first compound 0.0128 µM
  relative viability: 0.673
17-AAG + Pemetrexed; first compound 0.04048 µM
  relative viability: 0.764
17-AAG + Pemetrexed; first compound 0.128 µM
  relative viability: 0.372

## NCI-H647
17-AAG + Dasatinib; first compound 0.00128 µM
  relative viability: 0.193
17-AAG + Dasatinib; first compound 0.004048 µM
  relative viability: 0.112
17-AAG + Dasatinib; first compound 0.0128 µM
  relative viability: 0.0468
17-AAG + Dasatinib; first compound 0.04048 µM
  relative viability: 0.107
17-AAG + Dasatinib; first compound 0.128 µM
  relative viability: 0.0735
17-AAG + Palbociclib; first compound 0.00128 µM
  relative viability: 0.414
17-AAG + Palbociclib; first compound 0.004048 µM
  relative viability: 0.284
17-AAG + Palbociclib; first compound 0.0128 µM
  relative viability: 0.102
17-AAG + Palbociclib; first compound 0.04048 µM
  relative viability: 0.0567
17-AAG + Palbociclib; first compound 0.128 µM
  relative viability: 0.0782
17-AAG + Vorinostat; first compound 0.00128 µM
  relative viability: 0.584
17-AAG + Vorinostat; first compound 0.004048 µM
  relative viability: 0.533
17-AAG + Vorinostat; first compound 0.0128 µM
  relative viability: 0.132
17-AAG + Vorinostat; first compound 0.04048 µM
  relative viability: 0.116
17-AAG + Vorinostat; first compound 0.128 µM
  relative viability: 0.0825
17-AAG + Pemetrexed; first compound 0.00128 µM
  relative viability: 0.203
17-AAG + Pemetrexed; first compound 0.004048 µM
  relative viability: 0.179
17-AAG + Pemetrexed; first compound 0.0128 µM
  relative viability: 0.102
17-AAG + Pemetrexed; first compound 0.04048 µM
  relative viability: 0.0945
17-AAG + Pemetrexed; first compound 0.128 µM
  relative viability: 0.0923

## NCI-H650
17-AAG + Dasatinib; first compound 0.00128 µM
  relative viability: 0.427
17-AAG + Dasatinib; first compound 0.004048 µM
  relative viability: 0.468
17-AAG + Dasatinib; first compound 0.0128 µM
  relative viability: 0.4
17-AAG + Dasatinib; first compound 0.04048 µM
  relative viability: 0.256
17-AAG + Dasatinib; first compound 0.128 µM
  relative viability: 0.136
17-AAG + Palbociclib; first compound 0.00128 µM
  relative viability: 0.325
17-AAG + Palbociclib; first compound 0.004048 µM
  relative viability: 0.356
17-AAG + Palbociclib; first compound 0.0128 µM
  relative viability: 0.371
17-AAG + Palbociclib; first compound 0.04048 µM
  relative viability: 0.339
17-AAG + Palbociclib; first compound 0.128 µM
  relative viability: 0.161
17-AAG + Vorinostat; first compound 0.00128 µM
  relative viability: 0.443
17-AAG + Vorinostat; first compound 0.004048 µM
  relative viability: 0.497
17-AAG + Vorinostat; first compound 0.0128 µM
  relative viability: 0.477
17-AAG + Vorinostat; first compound 0.04048 µM
  relative viability: 0.32
17-AAG + Vorinostat; first compound 0.128 µM
  relative viability: 0.193
17-AAG + Pemetrexed; first compound 0.00128 µM
  relative viability: 1.03
17-AAG + Pemetrexed; first compound 0.004048 µM
  relative viability: 0.895
17-AAG + Pemetrexed; first compound 0.0128 µM
  relative viability: 0.91
17-AAG + Pemetrexed; first compound 0.04048 µM
  relative viability: 0.657
17-AAG + Pemetrexed; first compound 0.128 µM
  relative viability: 0.236
